According to publication PMC9013686, “Inter-individual variation in chlorpyrifos toxicokinetics characterized by physiologically based kinetic (PBK) and Monte Carlo simulation comparing human liver microsome and Supersome™ cytochromes P450 (CYP)-specific kinetic data as model input” (Archives of Toxicology, 2022):
Where two headings read alike, the source gives them in different places.

What was measured:
[1] = test system: CYP1A2, CYP2B6, CYP2C19 and CYP3A4; assay: Summed Supersome CYP kinetics scaled to whole liver; assay type: in vitro ADME, human
Experimental: The in vivo Kmi values were assumed to be equal to the apparent Kmi(app) values (µM) obtained in the in vitro incubations, while the in vivo Vmaxi for each CYP isoform was derived from their corresponding apparent CYP isoform Vmaxi(app) (pmol/min/pmolCYP) using Eq. 3:3 Vmaxi=Vmaxiapp×CYPiabundance×ISEF×60×MPL×1000×VL/1,000,000,
To gain a better insight in the contribution of each CYP to the metabolism of CPF in vivo at different concentrations of CPF, the apparent Supersome™ kinetic data were scaled toward the whole liver according to Eq. 3.
To evaluate the performance of the Supersomes™ together with the ISEF to predict the bioactivation of CPF, the sum of the scaled CE of the four individual Supersomes™ was compared to the CE obtained for the pooled HLMs (for both non-biphasic and biphasic scenarios).

CYP1A2 = target: T1, CYP1A2 (Homo sapiens, UniProt P05177); conditions: bioactivation of CPF, ref Foxenberg et al. [2007]; cited from earlier work
T1 sequence (P05177 2-516 limits assumed): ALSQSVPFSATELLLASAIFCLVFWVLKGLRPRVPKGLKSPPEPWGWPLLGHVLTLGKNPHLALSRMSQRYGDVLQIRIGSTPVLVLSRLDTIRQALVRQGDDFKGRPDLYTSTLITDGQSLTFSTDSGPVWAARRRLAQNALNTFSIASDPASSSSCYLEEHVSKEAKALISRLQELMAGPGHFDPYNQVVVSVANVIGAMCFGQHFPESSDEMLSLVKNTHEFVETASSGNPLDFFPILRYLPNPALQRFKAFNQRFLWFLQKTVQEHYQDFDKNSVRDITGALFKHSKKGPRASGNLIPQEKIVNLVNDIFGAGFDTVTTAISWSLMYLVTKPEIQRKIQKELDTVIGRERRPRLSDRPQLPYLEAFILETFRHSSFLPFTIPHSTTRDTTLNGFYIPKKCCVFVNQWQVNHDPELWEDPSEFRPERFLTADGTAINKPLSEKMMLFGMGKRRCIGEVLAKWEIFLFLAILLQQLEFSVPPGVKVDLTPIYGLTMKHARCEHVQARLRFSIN

CYP2B6 = target: T2, CYP2B6 (Homo sapiens, UniProt P20813); conditions: bioactivation of CPF, ref Foxenberg et al. [2007]; cited from earlier work
T2 sequence (P20813 1-491): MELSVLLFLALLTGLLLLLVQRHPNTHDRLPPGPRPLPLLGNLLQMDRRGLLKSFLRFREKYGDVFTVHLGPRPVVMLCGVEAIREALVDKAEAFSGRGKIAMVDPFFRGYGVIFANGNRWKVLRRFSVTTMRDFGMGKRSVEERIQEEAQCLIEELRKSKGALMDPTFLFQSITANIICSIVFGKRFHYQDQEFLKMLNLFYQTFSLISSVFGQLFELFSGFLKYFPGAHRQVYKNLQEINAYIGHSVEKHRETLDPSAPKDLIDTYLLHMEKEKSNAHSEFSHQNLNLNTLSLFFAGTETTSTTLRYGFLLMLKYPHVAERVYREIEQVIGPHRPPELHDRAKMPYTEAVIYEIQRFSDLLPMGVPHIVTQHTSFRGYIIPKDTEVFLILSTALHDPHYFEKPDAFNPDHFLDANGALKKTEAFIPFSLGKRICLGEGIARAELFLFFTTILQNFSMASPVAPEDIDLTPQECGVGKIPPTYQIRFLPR

pooled HLMs (CYPs) = conditions: cited from earlier work
[2] = Pathway 2 (CPF to TCPy), pooled HLMs, CPF 3–100 µM, ref Sams et al. ([2004])

For `CCOP(=S)(OCC)Oc1nc(Cl)c(Cl)cc1Cl` [CPF, Chlorpyrifos], the “summed scaled CE of Supersomes” value ([1]; bioactivation of CPF, sum of four individual Supersomes) was 1578 L/h, the “overall extrapolated Vmax from Supersome data versus HLM-derived Vmax” value ([1]; high affinity component) was 1.9 fold and the “overall extrapolated Vmax from Supersome data versus HLM-derived Vmax” value ([1]; low affinity component) was 0.9 fold. The Km (CYP1A2) was 0.38 µM, the Km (CYP2B6) was 0.81 µM and the “Vmax (high affinity)” value (pooled HLMs (CYPs); Pathway 1 (CPF to CPO), pooled HLMs, CPF 0.02–10 µM, ref Buratti et al. ([2003])) was 0.275 nmol/min/mg microsomal protein. For the same compound, the “Vmax (low affinity)” value (pooled HLMs (CYPs); Pathway 1 (CPF to CPO), pooled HLMs, CPF 3–100 µM, ref Sams et al. ([2004])) was 0.353 nmol/min/mg microsomal protein, the Km (pooled HLMs (CYPs); [2]) was 12 µM and the Vmax (pooled HLMs (CYPs); [2]) was 0.653 nmol/min/mg microsomal protein. The Km (pooled HLMs (CYPs); read-out: Km (high affinity), Pathway 1 (CPF to CPO), pooled HLMs, CPF 0.02–10 µM, ref Buratti et al. ([2003])) was 0.27 µM and the Km (pooled HLMs (CYPs); read-out: Km (low affinity), apparent Km in pooled HLMs, Pathway 1 (CPF to CPO), CPF 3–100 µM, ref Sams et al. ([2004])) was 29.8 µM.
